Experimental findings from patent publication US11161830B2, “4-pyridone compound or salt thereof, and pharmaceutical composition and formulation including same” (priority 2017, dated 2021) are described below.

Where two headings read alike, the source gives them in different places.

One test has as its system HBV. Description: Test Example 1-1: anti-HBV assay in HepG2.2.15 cells (test solution 200 μL/well). The note with it: Hepatitis B virus, culture supernatant. The test is classed as cell-based, hepatitis B virus. Put shortly: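 HepG2.2.15 cells (HBV genome, persistent virus production) pre-cultured 2 days, then treated with compound in 0.25% DMSO medium for 4 days, refreshed for 3 more days at 37 °C. Supernatant HBV-DNA measured by real-time PCR and HBsAg by chemiluminescent immunoassay. IC50 = 50% reduction versus DMSO control, linear regression on log concentration.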

In another test the test system is HBV (genotype CAT). Description: Test Example 2-2: anti-HBV assay in PXB-cells (fresh human hepatocytes). Type of test: cell-based. The note with it: Hepatitis B virus, Hepatocyte. The procedure: Using fresh human hepatocytes (PXB-cells, manufactured by PhenixBio Co., Ltd.) collected from a PXB mouse (a chimeric mouse with human hepatocytes), the anti-HBV activity of the representative compounds was evaluated in the following procedure.
The following was used as a medium:
DMEM (manufactured by Sigma)+0.25 μg/mL insulin (manufactured by Wako)+1% penicillin/streptomycin. (manufactured by Sigma)+20 mmol/L HEPES (manufactured by Sigma)+15 μg/mL L-proline (manufactured by Sigma)+50 nmol/L dexamethasone (manufactured by Sigma)+5 ng/mL EGF (manufactured by Peprotech)+0.1 mmol/L ascorbic acid 2-phosphate (manufactured by Wako)+10% FBS+2% DMSO
Each of the test compounds) was further added to the medium to prepare a test solution containing each of the test compounds at various concentrations.
(1) PXB-cells seeded at a seeding density of 2.1×10^5 cells/cm^2 in a 96-well microliter plate were incubated in a 5% CO2 incubator at 37° C. until a day on which the cells were infected.
(2) A HBV (genotype CAT) prepared by transfecting an HBV plasmid into an HepG2 cell was suspended in the medium containing 4% PEG-8000, and added to the plate of (1) at about 30 copies/cell such that the PXB cells were infected (100 μL/well), and the plate was incubated in a 5% CO2 incubator at 37° C. for 1 day.
(3) The culture supernatant on day 1 post infection was removed and the cells were washed three times with DMEM containing 10% FBS and 1% penicillin/streptomycin. Then, the medium was added to the plate (100 μL/well) and the plate was incubated in a 5% CO2 incubator at 37° C. for 1 day.
(4) The culture supernatant on day 2 post infection was removed and the cells were washed three times with DMEM containing 10% FBS and 1% penicillin/streptomycin. Then, the medium was added to the plate (100 μL/well) and the plate was incubated in a 5% CO2 incubator at 37° C. for 5 days.
(5) The culture supernatant on day 7 post infection was removed, the medium was added to the plate (100 μL/well), and the plate was incubated in a 5% CO2 incubator at 37° C. for 5 days.
(6) The culture supernatant on day 12 post infection was removed, the medium was added to the plate (100 μL/well), and the plate was incubated in a 5% CO2 incubator at 37° C. for 5 days.
(7) The culture supernatant on day 17 post infection was removed, the test solution was added to the plate (100 μL/well), and the plate was incubated in a 5% CO2 incubator at 37° C. for 5 days. As a control without the compound added, the medium was added to the plate (100 μL/well) and the plate was incubated in a 5% CO2 incubator at 37° C. for 5 days.
(8) The culture supernatant on day 22 post infection was removed, the test solution was added to the plate (100 μL/well), and the plate was incubated in a 5% CO2 incubator at 37° C. for 5 days. As a control without the compound added, the medium was added to the plate (100 μL/well) and the plate was incubated in a 5% CO2 incubator at 37° C. for 5 days.
(9) The culture supernatant on day 27 post infection was removed, the test solution was added to the plate (100 μL/well), and the plate was incubated in a 5% CO2 incubator at 37° C. for 5 days. As a control without the compound added, the medium was added to the plate (100 μL/well) and the plate was incubated in a 5% CO2 incubator at 37° C. for 5 days.
(10) The culture supernatant on day 32 post infection was collected.
(11) The collected culture supernatant on day 32 post infection was treated with a mixture of Buffer AL (manufactured by QIAGEN) and Proteinase K (manufactured by Invitrogen). The amount of HBV-DNA in the obtained solution was absolutely quantified by a real-time PCR method. In addition, the amount of HBsAg in the culture supernatant was absolutely quantified by chemiluminescent enzyme immunoassay using Lumipulse (registered trademark) HBsAg-HQ (manufactured by Fujirebio Inc.). A relative viral load (%) with respect to a control without the compound added was each calculated. […]

`COC[C@H]1CCCN1c1nc2ccc(-n3cc(C(=O)O)c(=O)cc3-c3ccc(N4CC[C@@H](OC)C4)cc3)cc2s1` [Example 10-2, 1-(2-((R)-2-(methoxymethyl)pyrrolidin-1-yl)benzo[d]thiazol-6-yl)-6-(4-((R)-3-methoxypyrrolidin-1-yl)phenyl)-4-oxo-1,4-dihydropyridine-3-carboxylic acid]: the concentration for half-maximal inhibition (IC50) was determined as 5.2 nM in the test with HBV (read-out: IC50 HBV-DNA) and 2.7 nM with HBV (read-out: IC50 HBsAg).

Turning to `COCCN1CCN(c2nc3ccc(-n4cc(C(=O)O)c(=O)cc4-c4ccc(N5CCCC5)c(Cl)c4)cc3s2)CC1` [Example 6-5, 6-(3-chloro-4-(pyrrolidin-1-yl)phenyl)-1-(2-(4-(2-methoxyethyl)piperazine-1-yl)benzo[d]thiazol-6-yl)-4-oxo-1,4-dihydropyridine-3-carboxylic acid], the half-inhibitory concentration (IC50) was found to be 76 nM with HBV (genotype CAT) (read-out: IC50 HBV-DNA, PXB-cells infected with HBV genotype CAT, culture supernatant on day 32 post infection) and 61 nM in the test on HBV (genotype CAT) (read-out: IC50 HBsAg, PXB-cells infected with HBV genotype CAT, culture supernatant on day 32 post infection).

The term IC50 denotes the concentration that inhibits the measured activity by half.
